This note sets out measurements from patent US20080096861A1, “Chemical Compounds” (SMITHKLINE BEECHAM CORPORATION, priority 2004, published 2008).

Holding throughout (format): cell-based
One data set deals with T1, CXCR4 receptor (Homo sapiens, UniProt P61073).
T1 construct: expressed in transfected cells; host or cells: HEK-293 cells (stably expressing human macrophage scavenger receptor) transduced with human CXCR4 BacMam and Gqi5 BacMam
The data set is described as follows: Functional FLIPR assay (block of SDF-1 alpha induced [Ca2+]i change). As to conditions: HEK-293 cells, human CXCR4 BacMam and Gqi5 BacMam, read-out: Functional assay (pIC50) (converted). On the procedure: Human embryonic kidney (HEK-293) cells were maintained and harvested as described above. Cells were plated in 96-well, black clear bottom, poly-lysine coated plates at a concentration of 40,000 cells per well in a final volume of 100 ul containing human CXCR4BacMam (MOI=25) and Gqi5 BacMam (MOI=12.5). The cells were incubated at 37° C., 5% CO2, 95% humidity for 24 h to allow for protein expression.
After the required incubation time the cells were washed once with 50 ul of fresh serum-free DMEM/F12 media containing probenicid. 50 ul of dye solution was then added to the cells (Calcium Plus Assay Kit Dye; Molecular Devices) was dissolved in 200 ml of the above probenicid/BSA containing media and incubated for 1 h. Cell plates were transferred to a Fluorometric Imaging Plate Reader (FLIPR). Upon addition the effect of the compounds on the change in [Ca^2+]i was examined to determine if the compounds were agonists or antagonists (ability to block SDF-1 alpha activity) at the CXCR4 receptor. IC50 values are determined and pKb values are calculated using the Leff and Dougall equation: KB═IC50/((2+([agonist]/EC50̂b)̂1/b−1) Where IC50 is that defined by the antagonist concentration-response curve [agonist)] is the EC80 concentration of agonist used EC50 is that defined by the agonist concentration-response curve b is the slope of the agonist concentration-response curve.

Data set [1] relates to HIV-1 gp160 (HXB2 strain) mediated cell/cell fusion. The data set is described as follows: Cell/cell fusion assay (HOS hCXCR4/hCCR5/hCD4/pHIV-LTR-luciferase cells with HEK-293 cells expressing HIV-1 tat, rev, gp160), luciferase readout. The conditions noted are these: Homo sapiens, HEK293, 24 h, read-out: Fusion assay (pIC50) (converted). The text has this: The complete coding sequences of HIV-1 tat (GenBank Accession No. X07861) and rev (GenBank Accession No. M34378) were cloned into pcDNA3.1 expression vectors containing G418 and hygromycin resistance genes, respectively. The complete coding sequence of the HIV-1 (HXB2 strain) gp160 envelope gene (nucleotide bases 6225-8795 of GenBank Accession No. K03455) was cloned into plasmid pCRII-TOPO. The three HIV genes were additionally inserted into the baculovirus shuttle vector, pFastBacMam1, under the transcriptional control of the CMV promoter. A construction of the pHIV-1 LTR containing mutated NFkB sequences linked to the luciferase reporter gene was prepared by digesting pcDNA3.1, containing the G418 resistance gene, with Nru I and Bam HI to remove the CMV promoter. LTR-luc was then cloned into the Nru I/Bam HI sites of the plasmid vector. Plasmid preparations were performed after the plasmids were amplified in Escherichia coli strain DH5-alpha. The fidelity of the inserted sequences was confirmed by double-strand nucleotide sequencing using an ABI Prism Model 377 automated sequencer.
Recombinant BacMam baculoviruses were constructed from pFastBacMam shuttle plasmids by using the bacterial cell-based Bac-to-Bac system. Viruses were propagated in Sf9 (Spodoptera frugiperda) cells cultured in Hink's TNM-FH Insect media supplemented with 10% (v/v) fetal bovine serum and 0.1% (v/v) pluronic F-68 according to established protocols.
Human osteosarcoma (HOS) cells that naturally express human CXCR4 were transfected with human CCR5, human CD4 and the pHIV-LTR-luciferase plasmid using FuGENE 6 transfection reagent. Single cells were isolated and grown under selection condition in order to generate a stable HOS (hCXCR4/hCCR5/hCD4/pHIV-LTR-luciferase) clonal cell line. The cells were maintained in Dulbeccos modified Eagles media supplemented with 10% fetal calf serum (FCS), G418 (400 ug/ml), puromycin (1 ug/ml), mycophenolic acid (40 ug/ml), xanthine (250 ug/ml) and hypoxanthine (13.5 ug/ml) to maintain a selection pressure for cells expressing the LTR-luciferase, hCCR5 and hCD4, respectively. Human embryonic kidney (HEK-293) cells stably transfected to express the human macrophage scavenging receptor (Class A, type 1; GenBank Accession No. D90187), were maintained in DMEM/F-12 media (1:1) supplemented with 10% FCS and 1.5 ug/ml puromycin. The expression of this receptor by the HEK-293 cells enhances their ability to stick to tissue culture treated plasticware.
HEK-293 cells were harvested using enzyme-free cell dissociation buffer. The cells were resuspended in DMEM/F-12 media supplemented with 10% FCS and 1.5 ug/ml and counted. Tranductions were performed by direct addition of BacMam baculovirus containing insect cell media to cells. The cells were simultaneously transduced with BacMam baculovirus expressing HIV-1 tat, HIV-1 rev and HIV-1 gp160 (from the HXB2 HIV strain). Routinely an MOI of 10 of each virus was added to the media containing the cells. 2 mM butyric acid was also added to the cells at this stage to increase protein expression in transduced cells. The cells were subsequently mixed and seeded into a flask at 30 million cells per T225. The cells were incubated at 37° C., 5% CO2, 95% humidity for 24 h to allow for protein expression.
HEK and HOS cells were harvested in DMEM/F-12 media containing 2% FCS and DMEM media containing 2% FCS, respectively, with no selection agents added. Compounds were plated as 1 ul spots in 100% DMSO on a 96-well CulturPlate plates. HOS cells (50 ul) were added first to the wells, followed immediately by the HEK cells (50 ul). The final concentration of each cell type was 20,000 cells per well. Following these additions, the cells were returned to a tissue culture incubator (37° C.; 5% CO2/95% air) for an additional 24 h.
Following the 24 h incubation, total cellular luciferase activity was measured using the LucLite Plus assay kit (Packard, Meridien, Conn.). […]

Data set [2] in a line: Compound cytotoxicity in HOS cells in the absence of virus (CellTiter-Glo). The conditions noted are these: human, no virus, read-out: Cytotox (pIC50) (converted). The method, then: Compounds were profiled against two HIV-1 viruses, the M-tropic (CCR5 utilizing) Ba-L strain and the T-tropic (CXCR4 utilizing) IIIB strain. Both viruses were propagated in human peripheral blood lymphocytes. Compounds were tested for there ability to block infection of the HOS cell line (expressing hCXCR4/hCCR5/hCD4/pHIV-LTR-luciferase) by either HIV-1 Ba-L or HIV-1 IIIB. Compound cytotoxicity was also examined in the absence of virus addition.
HOS cells (expressing hCXCR4/hCCR5/hCD4/pHIV-LTR-luciferase) were harvested and diluted in Dulbeccos modified Eagles media supplemented with 2% FCS and non-essential amino acid to a concentration of 60,000 cells/ml. The cells were plated into 96-well plates (100 ul per well) and the plates were placed in a tissue culture incubator (37° C.; 5% CO2/95% air) for a period of 24 h.
Subsequently, 50 ul of the desired drug solution (4 times the final concentration) was added to each well and the plates were returned to the tissue culture incubator (37° C.; 5% CO2/95% air) for 1 h. Following this incubation 50 ul of diluted virus was added to each well (approximately 2 million RLU per well of virus). The plates were returned to the tissue culture incubator (37° C.; 5% CO2/95% air) and were incubated for a further 96 h.
Following this incubation the endpoint for the virally infected cultures was quantified following addition of Steady-Glo Luciferase assay system reagent (Promega, Madison, Wis.). Cell viability or non-infected cultures was measured using a CellTiter-Glo luminescent cell viability assay system (Promega, Madison, Wis.). All luminescent readouts are performed on a Topcount luminescence detector (Packard, Meridien, Conn.).
For orientation: Cellular ATP, detected with luciferase, serves as a proxy for viable cell number.

Another data set deals with HIV-1 IIIB. The experiment in a line: HOS HIV-1 infectivity assay. The essentials:
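HOS hCXCR4/hCCR5/hCD4/pHIV-LTR-luc cells, DMEM 2% FCS, 24 h preculture; cpd 1 h pre-virus; HIV-1 (PBL-grown) ~2 million RLU/well; 96 h, 37 °C. Readout: Steady-Glo luciferase (infected), CellTiter-Glo (no virus).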

[3] abbreviates: Human immunodeficiency virus 1, IIIB, as determined by the infectivity assay, strain not stated in Table 2, read-out: Activity Level.
[4] abbreviates: Human immunodeficiency virus 1, T-tropic (CXCR4 utilizing) IIIB strain, HOS cells, 96 h, read-out: HOS (3B).

Read-outs that look alike come from different tables or passages of the source.

T1 sequence (P61073 whole entry): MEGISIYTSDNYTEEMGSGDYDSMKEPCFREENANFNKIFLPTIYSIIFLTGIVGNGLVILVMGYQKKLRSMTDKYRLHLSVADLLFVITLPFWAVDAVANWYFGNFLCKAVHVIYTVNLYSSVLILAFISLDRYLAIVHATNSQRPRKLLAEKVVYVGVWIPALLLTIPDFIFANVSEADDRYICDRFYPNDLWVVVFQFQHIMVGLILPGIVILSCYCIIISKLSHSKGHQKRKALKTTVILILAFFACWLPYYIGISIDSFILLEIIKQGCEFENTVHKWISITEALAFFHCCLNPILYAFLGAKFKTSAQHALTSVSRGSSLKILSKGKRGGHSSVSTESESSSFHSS

Regarding `CN(C)CCCn1c(CN(C)C2CCCc3cccnc32)nc2ccccc21` (centres unmarked) [Example 15c, N-({1-[3-(Dimethylamino)propyl]-1H-benzimidazol-2-yl}methyl)-N-methyl-5,6,7,8-tetrahydro-8-quinolinamine], the IC50 is 17 nM at CXCR4 receptor, 16.6 nM in data set [1], less than 100 nM in the data set with HIV-1 IIIB (setting [3]) and 23 nM in the data set on HIV-1 IIIB (setting [4]). Also, the IC50 at 96 h in data set [2] was greater than 100000 nM.

For the compound `CN(Cc1nc2ccccc2n1CCCCN)C1CCCc2cccnc21` (centres unmarked) [Example 13, N-{[1-(4-Aminobutyl)-1H-benzimidazol-2-yl]methyl}-N-methyl-5,6,7,8-tetrahydro-8-quinolinamine], the IC50 at CXCR4 receptor is 302 nM; in data set [1], 126 nM; in the data set with HIV-1 IIIB (setting [3]) it was 100 to 500 nM; in the data set on HIV-1 IIIB (setting [4]) it was 131 nM. The IC50 at 96 h in data set [2] was greater than 100000 nM.

With `CN(Cc1nc2ccccc2n1Cc1ccc(CN)cc1)C1CCCc2cccnc21` (centres unmarked) [Example 14, N-[(1-{[4-(Aminomethyl)phenyl]methyl}-1H-benzimidazol-2-yl)methyl]-N-methyl-5,6,7,8-tetrahydro-8-quinolinamine], the IC50 at CXCR4 receptor is 282 nM; in data set [1], 708 nM; in the data set on HIV-1 IIIB (setting [3]) it was 500 to 10000 nM; in the data set on HIV-1 IIIB (setting [4]), 985 nM. In addition, the IC50 at 96 h in data set [2] is greater than 100000 nM.

Turning to `CN1CCCC(Cn2c(CN(C)C3CCCc4cccnc43)nc3ccccc32)C1` (centres unmarked) [Example 7, N-Methyl-N-({1-[(1-methyl-3-piperidinyl)methyl]-1H-benzimidazol-2-yl}methyl)-5,6,7,8-tetrahydro-8-quinolinamine], the IC50 on CXCR4 receptor was 8.13 nM; in data set [1] it was 20.9 nM; in the data set with HIV-1 IIIB (setting [3]), less than 100 nM; in the data set on HIV-1 IIIB (setting [4]), 19 nM. In data set [2], the IC50 at 96 h was greater than 100000 nM.

For the compound `NCCCn1c(CN(Cc2ccccc2)C2CCCc3cccnc32)nc2ccccc21` (centres unmarked) [Example 21, N-{[1-(3-Aminopropyl)-1H-benzimidazol-2-yl]methyl}-N-(phenylmethyl)-5,6,7,8-tetrahydro-8-quinolinamine], the IC50 is 288 nM at CXCR4 receptor, 1320 nM in data set [1], 500 to 10000 nM with HIV-1 IIIB (setting [3]) and 595 nM in the data set with HIV-1 IIIB (setting [4]). Further, the IC50 at 96 h in data set [2] is greater than 100000 nM.

Take `CC(C)CCN(Cc1nc2ccccc2n1CCCN)C1CCCc2cccnc21` (centres unmarked) [Example 22, N-{[1-(3-Aminopropyl)-1H-benzimidazol-2-yl]methyl}-N-(3-methylbutyl)-5,6,7,8-tetrahydro-8-quinolinamine]: the IC50 at CXCR4 receptor was 56.2 nM; in data set [1], 158 nM; with HIV-1 IIIB (setting [3]), 100 to 500 nM; in the data set on HIV-1 IIIB (setting [4]) it was 113 nM. Moreover, in data set [2], the IC50 at 96 h is greater than 100000 nM.

Consider `NCCCn1c(CNC2CCCc3cccnc32)nc2ccccc21` (centres unmarked) [Example 19, N-{[1-(3-Aminopropyl)-1H-benzimidazol-2-yl]methyl}-5,6,7,8-tetrahydro-8-quinolinamine], for which the IC50 is 234 nM at CXCR4 receptor, 513 nM in data set [1], less than 100 nM with HIV-1 IIIB (setting [3]) and 90 nM in the data set with HIV-1 IIIB (setting [4]). Further, in data set [2], the IC50 at 96 h is greater than 100000 nM.

On to `CN(Cc1nc2ccccc2n1Cc1cccnc1)C1CCCc2cccnc21` (centres unmarked) [Example 3, N-Methyl-N-{[1-(3-pyridinylmethyl)-1H-benzimidazol-2-yl]methyl}-5,6,7,8-tetrahydro-8-quinolinamine], for which the IC50 is 398 nM on CXCR4 receptor, 1780 nM in data set [1], 500 to 10000 nM in the data set on HIV-1 IIIB (setting [3]) and 574 nM in the data set with HIV-1 IIIB (setting [4]). Besides, in data set [2], the IC50 at 96 h was greater than 100000 nM.

For `CN(Cc1nc2ccccc2n1Cc1ccc(CNCc2ccccn2)cc1)C1CCCc2cccnc21` (centres unmarked) [Example 12, N-Methyl-N-({1-[(4-{[(2-pyridinylmethyl)amino]methyl}phenyl)methyl]-1H-benzimidazol-2-yl}methyl)-5,6,7,8-tetrahydro-8-quinolinamine], the IC50 at CXCR4 receptor was 224 nM; in data set [1], 575 nM; with HIV-1 IIIB (setting [3]) it was 100 to 500 nM; in the data set on HIV-1 IIIB (setting [4]) it was 376 nM. For the same compound, the IC50 at 96 h in data set [2] was greater than 100000 nM.

Regarding `CN(C)C/C=C\Cn1c(CN(C)C2CCCc3cccnc32)nc2ccccc21` (centres unmarked) [Example 24, N-({1-[(2Z)-4-(Dimethylamino)-2-buten-1-yl]-1H-benzimidazol-2-yl}methyl)-N-methyl-5,6,7,8-tetrahydro-8-quinolinamine], the IC50 on CXCR4 receptor was 15.5 nM; in data set [1] it was 20.4 nM; in the data set with HIV-1 IIIB (setting [3]), less than 100 nM; with HIV-1 IIIB (setting [4]), 25 nM. The IC50 at 96 h in data set [2] is greater than 100000 nM.
